What was measured:
[1] = system: methionine N^α -acetyltransferase (M-N^α -AT); assay: Relative activity of M-N^α -AT for N^α -acetylation of synthetic peptides; assay type: biochemical, Saccharomyces cerevisiae; parameters: tested at 50 µM; details: Table 7, influence of the penultimate amino terminal residue
Protocol: (§1) N^α -acetylt[…] was determined as previously described [Lee et al., J. Biol. Chem. 263:14948-14955 (1988)]. Aliquots of the lysate or chromatographic fractions were added to 1.5 ml Eppendorf tubes containing a reaction mixture of 50 mM HEPES, pH 7.4, 150 mM KCl, 1 mM DTT, 25 μM [^3 H] acetyl coenzyme A (0.5 μCi) and 50 μM synthetic peptide with an adjusted final volume of 100 μl. The assay mixture was incubated at 30° C. for 30 min. The reaction was stopped by adding 17 μl of 0.5M acetic acid and chilled in an ice bath. The reaction samples were filtered through SP membrane discs (Cuno) (previously pre-swollen in 0.5M acetic acid), and then washed three times with 1 ml of 0.5M acetic acid on a Millipore 1225 sampling manifold. The partially dried membranes were placed in scintillation cocktail and counted with a Beckman LS 3801 scintillation counter. One unit of activity was defined as the amount of enzyme able to transfer 1 pmol of [^3 H] acetyl group from [^3 H] acetyl coenzyme A to synthetic peptide per min under standard enzyme assay conditions defined above.
(§2) In order to compare the relative specificity and activity of the methionine N^α -acetylt[…] (M-N^α -AT) of the present invention with the specificity and activity of the AAA1 N^α -acetyltransferase (N^α -AT) of Lee, F.-J. S., et al., J. Bacteriol. 171, (1989), U.S. Patent Application of John A. Smith, and Fang-Jen S. Lee, filed Oct. 25, 1989, entitled "ISOLATION OF STRAINS OF SAC[…] ALTERED N^α -ACETYLT[…]" (which references have been incorporated herein by reference) synthetic peptides were prepared. These peptides were assessed for their ability to serve as substrates for the two enzymes. In Table 6, the effect of the amino terminal amino acid on activity is investigated; in Table 7, the effect of the penultimate amino terminal amino acid on activity is investigated.

[2] = molecular target: T1, AAA1 N^α -acetyltransferase (N^α -AT) (Saccharomyces cerevisiae, UniProt P07347+P12945); assay: Relative activity of N^α -AT for N^α -acetylation of synthetic peptides; assay type: biochemical; details: Table 7, influence of the penultimate amino terminal residue
T1 sequence (P12945 2-854 limits assumed): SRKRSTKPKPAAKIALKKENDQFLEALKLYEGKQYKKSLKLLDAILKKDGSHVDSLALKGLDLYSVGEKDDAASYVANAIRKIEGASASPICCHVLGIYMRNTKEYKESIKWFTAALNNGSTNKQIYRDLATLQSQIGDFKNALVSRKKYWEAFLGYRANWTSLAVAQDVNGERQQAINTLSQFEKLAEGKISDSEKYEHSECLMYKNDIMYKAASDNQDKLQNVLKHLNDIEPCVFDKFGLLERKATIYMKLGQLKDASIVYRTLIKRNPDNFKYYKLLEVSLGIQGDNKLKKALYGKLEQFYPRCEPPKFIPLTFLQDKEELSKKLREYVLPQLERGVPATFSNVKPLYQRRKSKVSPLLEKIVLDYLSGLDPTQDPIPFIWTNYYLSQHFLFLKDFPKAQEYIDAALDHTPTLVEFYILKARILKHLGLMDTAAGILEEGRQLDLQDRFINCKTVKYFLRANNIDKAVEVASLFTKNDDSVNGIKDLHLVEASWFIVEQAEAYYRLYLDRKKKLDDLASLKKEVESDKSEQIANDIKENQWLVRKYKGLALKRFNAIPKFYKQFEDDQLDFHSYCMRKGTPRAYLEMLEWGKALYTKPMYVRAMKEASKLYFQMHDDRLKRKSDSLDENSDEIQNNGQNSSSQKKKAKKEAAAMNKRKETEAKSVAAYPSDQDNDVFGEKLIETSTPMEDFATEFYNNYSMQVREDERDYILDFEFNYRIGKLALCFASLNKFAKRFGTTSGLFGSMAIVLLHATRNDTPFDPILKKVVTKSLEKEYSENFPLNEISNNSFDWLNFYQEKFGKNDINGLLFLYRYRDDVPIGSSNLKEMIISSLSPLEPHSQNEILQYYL
T1 sequence (P07347 1-238): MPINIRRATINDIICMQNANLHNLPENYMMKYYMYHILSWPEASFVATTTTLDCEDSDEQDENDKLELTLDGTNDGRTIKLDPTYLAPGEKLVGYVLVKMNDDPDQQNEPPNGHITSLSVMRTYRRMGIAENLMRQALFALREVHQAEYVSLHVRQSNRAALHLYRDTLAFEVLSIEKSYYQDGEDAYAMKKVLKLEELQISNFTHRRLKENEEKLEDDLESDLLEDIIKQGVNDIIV
Protocol: as §1, §2

| Substance | Activity (%) (mean activity ± S.D.) M-N^a -AT [1] | Activity (%) (mean activity ± S.D.) N^a -AT [2] |
| --- | --- | --- |
| SRPETQKGVIFYESHGKLEYKDIP (SRPETQKGVIFYESHGKLEYKDIP) | 0% | 102 ± 5% |
| SYPETQKGVIFYESHGKLEYKDIP (SYPETQKGVIFYESHGKLEYKDIP) | 0% | 169 ± 8% |
| SFPETQKGVIFYESHGKLEYKDIP (SFPETQKGVIFYESHGKLEYKDIP) | 0% | 118 ± 6% |
| SAPETQKGVIFYESHGKLEYKDIP (SAPETQKGVIFYESHGKLEYKDIP) | 0% | 168 ± 8% |
| STPETQKGVIFYESHGKLEYKDIP (STPETQKGVIFYESHGKLEYKDIP) | 0% | 144 ± 8% |
| SEPETQKGVIFYESHGKLEYKDIP (SEPETQKGVIFYESHGKLEYKDIP) | 0% | 121 ± 6% |
| SNPETQKGVIFYESHGKLEYKDIP (SNPETQKGVIFYESHGKLEYKDIP) | 0% | 116 ± 5% |
| SSPETQKGVIFYESHGKLEYKDIP (SSPETQKGVIFYESHGKLEYKDIP) | 0% | 140 ± 6% |
| SCPETQKGVIFYESHGKLEYKDIP (SCPETQKGVIFYESHGKLEYKDIP) | 0% | 136 ± 7% |
| SGPETQKGVIFYESHGKLEYKDIP (SGPETQKGVIFYESHGKLEYKDIP) | 0% | 84 ± 5% |
| SLPETQKGVIFYESHGKLEYKDIP (SLPETQKGVIFYESHGKLEYKDIP) | 0% | 126 ± 5% |
| SQPETQKGVIFYESHGKLEYKDIP (SQPETQKGVIFYESHGKLEYKDIP) | 0% | 134 ± 7% |
| SKPETQKGVIFYESHGKLEYKDIP (SKPETQKGVIFYESHGKLEYKDIP) | 0% | 151 ± 6% |
| SDPETQKGVIFYESHGKLEYKDIP (SDPETQKGVIFYESHGKLEYKDIP) | 0% | 171 ± 9% |
| SMPETQKGVIFYESHGKLEYKDIP (SMPETQKGVIFYESHGKLEYKDIP) | 0% | 140 ± 7% |
| SVPETQKGVIFYESHGKLEYKDIP (SVPETQKGVIFYESHGKLEYKDIP) | 0% | 123 ± 7% |

From patent US5223421A, “Identification of methionine Nα-acetyltransferase” (The General Hospital Corporation, priority 1990, dated 1993)
